# US6875758B2, “Method of treating hyperlipidemic and hyperglycemic conditions in mammals using pregnadienols and pregnadienones” (Council of Scientific & Industrial Research, priority 1999, dated 2005)
# How the values were obtained:
# Rhesus monkeys = test: Hypolipidemic activity in Rhesus monkeys; assay type: in vivo; conditions: for S. Triglycerides % Fall: day 60 vs day 0; for HDL-Cholesterol % Change / LDL-Cholesterol % Fall / S. Cholesterol % Fall: day 90 vs day 0
# Procedure: In Rhesus monkeys: 3β-Hydroxypregna-5,16-dien-20one (2) was administered orally daily for 90 days in doses of 62.5, 125 or 650 mg/kg to different group of animals. Significant decrease in serum cholesterol was observed (45-52%).
# [1] = Hydroxy (OH) radical formation in nonenzymatic system (Fe2+, ascorbate, H2O2, deoxyribose); assay type: biochemical
# hyperlipidemic rabbits = test: Hypolipidemic effect in hyperlipidemic rabbits (120 days experiment); assay type: in vivo; design: Serum Triglycerides: unit not given here; conditions: 100 mg/kg
# glucose loaded rats = test: Hypoglycemic activity in glucose loaded rats; assay type: in vivo, albino rats (Charles Foster strain); conditions: for Blood Glucose Level: 100 mg/kg p.o. + glucose 2.0 g/kg; for % inhibition compared to control (blood glucose): 100 mg/kg
# Procedure: The experiments were carried out with albino rats (Charles Foster strain) of either sex weighing 150-160 g. They were fed on laboratory diet prepared by M/s Lipton India Ltd. and maintained under 12 hr. light/dark cycle at 25±2° C.
# The animals were divided into eight groups, each of six rats; group I was given 1% gum acacia (0.1 ml/100 g body weight) intragastrically (p.o.) and the group II were given 3β-hydroxypregna-5,16-dien-20-one (2) in 1% gum acacia. Animals of group III were given the standard antidiabetic drug, tolbutamide in the similar fashion. 2.0 g/kg glucose was given p.o. to all the rats along with the vehicle/Compound/Standard antidiabetic drug. Blood samples were taken from retroorbital plexus at periodic intervals. Glucose levels in the blood samples were measured by glucose oxidase method [Bergmeyer and Benut, 1963 cited in “Methods of Enzymatic Analysis” ed. H. Bergmeyer, Verlag Chemie, GmBH, Weinheim, Beroster, pp123, Academic press, New York].
# [2] = tested on: endometrial proliferation; test: Clauberg assay, endometrial proliferation on McPhail scale; assay type: in vivo; conditions: 200 mg/kg dose
# Procedure: The progestational activity was also tested in vivo by Clauberg assay method. The degree of endometrial proliferation was estimated on the McPhail scale where 3′ or 4′ was considered as a full progestational effect.
# [3] = tested on: streptozotocin induced diabetic rats; test: Hypoglycemic activity in streptozotocin induced hyperglycemic rats; assay type: in vivo; conditions: 100 mg/kg p.o.
# Procedure: Hyperglycemia in rats was produced by streptozotocin treatment. The animals showing blood glucose levels between 250-350 mg/dl were selected. Blood samples were collected after treatment at intervals and blood glucose levels were estimated immediately.
# [4] = 62.5, 125 or 650 mg/kg orally daily for 90 days
compound,measurement,setting,value
"CC(=O)C1=CC[C@H]2[C@@H]3CC=C4C[C@@H](O)CC[C@]4(C)[C@H]3CC[C@]12C [Compound 2, 3β-Hydroxypregna-5,16-dien-20-one]",S. Cholesterol,"Rhesus monkeys; 62.5 mg/kg orally daily, day 0",156.8 ± 23.0 mg/dL
same,S. Triglycerides,"Rhesus monkeys; 62.5 mg/kg orally daily, day 0",77.5 ± 7.0 mg/dL
same,S. Triglycerides,"Rhesus monkeys; 62.5 mg/kg orally daily, day 60",66.3 ± 6.9 mg/dL
same,S. Cholesterol,"Rhesus monkeys; 62.5 mg/kg orally daily, day 90",83.3 ± 8.5 mg/dL
same,HDL-Cholesterol,"Rhesus monkeys; 62.5 mg/kg, day 0",50.0 ± 4.5 mg/dL
same,LDL-Cholesterol,"Rhesus monkeys; 62.5 mg/kg, day 0",91.8 ± 27.0 mg/dL
same,S. Triglycerides % Fall,Rhesus monkeys; 62.5 mg/kg,14%
same,HDL-Cholesterol,"Rhesus monkeys; 62.5 mg/kg, day 90",45.0 ± 2.5 mg/dL
same,LDL-Cholesterol,"Rhesus monkeys; 62.5 mg/kg, day 90",24.3 ± 8.0 mg/dL
same,HDL-Cholesterol % Change,Rhesus monkeys; 62.5 mg/kg,−8%
same,LDL-Cholesterol % Fall,Rhesus monkeys; 62.5 mg/kg,75%
same,S. Cholesterol % Fall,Rhesus monkeys; 62.5 mg/kg,47%
same,S. Cholesterol,"Rhesus monkeys; 125 mg/kg orally daily, day 0",133.3 ± 8.5 mg/dL
same,S. Triglycerides,"Rhesus monkeys; 125 mg/kg orally daily, day 0",69.8 ± 9.9 mg/dL
same,S. Triglycerides,"Rhesus monkeys; 125 mg/kg orally daily, day 60",60.0 ± 2.9 mg/dL
same,S. Cholesterol,"Rhesus monkeys; 125 mg/kg orally daily, day 90",65.8 ± 2.2 mg/dL
same,HDL-Cholesterol,"Rhesus monkeys; 125 mg/kg, day 0",46.3 ± 2.0 mg/dL
same,LDL-Cholesterol,"Rhesus monkeys; 125 mg/kg, day 0",63.5 ± 7.4 mg/dL
same,S. Triglycerides % Fall,Rhesus monkeys; 125 mg/kg,13%
same,HDL-Cholesterol,"Rhesus monkeys; 125 mg/kg, day 90",50.8 ± 0.5 mg/dL
same,LDL-Cholesterol,"Rhesus monkeys; 125 mg/kg, day 90",4.6 ± 0.9 mg/dL
same,HDL-Cholesterol % Change,Rhesus monkeys; 125 mg/kg,+10%
same,LDL-Cholesterol % Fall,Rhesus monkeys; 125 mg/kg,90%
same,S. Cholesterol % Fall,Rhesus monkeys; 125 mg/kg,50%
same,S. Cholesterol,"Rhesus monkeys; 650 mg/kg orally daily, day 0",132.8 ± 6.4 mg/dL
same,S. Triglycerides,"Rhesus monkeys; 650 mg/kg orally daily, day 0",90.5 ± 3.9 mg/dL
same,S. Triglycerides,"Rhesus monkeys; 650 mg/kg orally daily, day 60",58.5 ± 3.8 mg/dL
same,S. Cholesterol,"Rhesus monkeys; 650 mg/kg orally daily, day 90",63.3 ± 2.3 mg/dL
same,HDL-Cholesterol,"Rhesus monkeys; 650 mg/kg, day 0",39.3 ± 1.3 mg/dL
same,LDL-Cholesterol,"Rhesus monkeys; 650 mg/kg, day 0",72.7 ± 8.4 mg/dL
same,S. Triglycerides % Fall,Rhesus monkeys; 650 mg/kg,36%
same,HDL-Cholesterol,"Rhesus monkeys; 650 mg/kg, day 90",41.8 ± 0.9 mg/dL
same,LDL-Cholesterol,"Rhesus monkeys; 650 mg/kg, day 90",13.1 ± 0.7 mg/dL
same,HDL-Cholesterol % Change,Rhesus monkeys; 650 mg/kg,+6%
same,LDL-Cholesterol % Fall,Rhesus monkeys; 650 mg/kg,82%
same,S. Cholesterol % Fall,Rhesus monkeys; 650 mg/kg,53%
same,changes in HDL-cholesterol,Rhesus monkeys; [4],not significant
same,decrease in low density lipoprotein,Rhesus monkeys; [4],75-90%
same,decrease in serum cholesterol,Rhesus monkeys; [4],45-52%
same,generation of OH radical (in words),[1],inhibits the generation of OH radical in concentration dependent manner
same,% inhibition of OH radical formation,[1]; 5 μmol/ml,(28) %
same,OH radical formation,[1]; 5 μmol/ml,65.0 ± 5.4 nmol MDA/hr
same,% inhibition of OH radical formation,[1]; 10 μmol/ml,(42) %
same,OH radical formation,[1]; 10 μmol/ml,52.8 ± 4.2 nmol MDA/hr
same,% inhibition of OH radical formation,[1]; 20 μmol/ml,(74) %
same,OH radical formation,[1]; 20 μmol/ml,23.3 ± 1.8 nmol MDA/hr
same,% inhibition of OH radical formation,[1]; 30 μmol/ml,(87) %
same,OH radical formation,[1]; 30 μmol/ml,11.7 ± 1.3 nmol MDA/hr
same,% inhibition of OH radical formation,[1]; 40 μmol/ml,(88) %
same,OH radical formation,[1]; 40 μmol/ml,10.4 ± 2.0 nmol MDA/hr
same,% inhibition of OH radical formation,[1]; 50 μmol/ml,(90) %
same,OH radical formation,[1]; 50 μmol/ml,9.9 ± 0.8 nmol MDA/hr
same,Serum Cholesterol % Decrease (Compared with HFD),hyperlipidemic rabbits,74%
same,Serum Triglycerides % Decrease (Compared with HFD),hyperlipidemic rabbits,61%
same,Serum Cholesterol,hyperlipidemic rabbits; HFD,350.0 ± 28.1 mg/dL
same,Serum Triglycerides,hyperlipidemic rabbits; HFD,74.2 ± 10.3
same,Maximum Blood Glucose Change,glucose loaded rats; 100 mg/kg p.o. + glucose,−18.7%
same,Blood Glucose Level,glucose loaded rats; 0 min,42.43 ± 1.64 mg/dL
same,Blood Glucose Level,glucose loaded rats; 30 min,76.15 ± 6.07 mg/dL
same,Blood Glucose Level,glucose loaded rats; 60 min,56.06 ± 4.65 mg/dL
same,Blood Glucose Level,glucose loaded rats; 90 min,55.06 ± 2.61 mg/dL
same,Blood Glucose Level,glucose loaded rats; 120 min,49.59 ± 1.66 mg/dL
same,% inhibition compared to control (blood glucose),glucose loaded rats; 30 min,(48) %
same,% inhibition compared to control (blood glucose),glucose loaded rats; 60 min,(55) %
same,% inhibition compared to control (blood glucose),glucose loaded rats; 90 min,(54) %
same,% inhibition compared to control (blood glucose),glucose loaded rats; 120 min,(34) %
same,progestational activity,[2],did not exhibit any activity
same,Blood Glucose Level,[3]; 0 hr,274 ± 9 mg/dL
same,% lowering from zero hour value (blood glucose),[3]; 1 hr,(11.3) %
same,% lowering from zero hour value (blood glucose),[3]; 2 hr,(15.6) %
same,% lowering from zero hour value (blood glucose),[3]; 3 hr,(25.9) %
same,% lowering from zero hour value (blood glucose),[3]; 4 hr,(33.2) %
same,% lowering from zero hour value (blood glucose),[3]; 5 hr,(42.7) %
same,% lowering from zero hour value (blood glucose),[3]; 6 hr,(51.4) %
same,% lowering from zero hour value (blood glucose),[3]; 7 hr,(62.7) %
same,% lowering from zero hour value (blood glucose),[3]; 8 hr,(66.7) %
same,% lowering from zero hour value (blood glucose),[3]; 24 hr,(52.2) %
